These results are taken from patent US6936585B2, “Corticotropin releasing factor 2 receptor agonists” (priority 2002, dated 2005).

Peptide text beside a SMILES is read from it.

The target of one assay is T1, CRF1R (Homo sapiens, UniProt P34998).
T1 sequence (P34998 24-415): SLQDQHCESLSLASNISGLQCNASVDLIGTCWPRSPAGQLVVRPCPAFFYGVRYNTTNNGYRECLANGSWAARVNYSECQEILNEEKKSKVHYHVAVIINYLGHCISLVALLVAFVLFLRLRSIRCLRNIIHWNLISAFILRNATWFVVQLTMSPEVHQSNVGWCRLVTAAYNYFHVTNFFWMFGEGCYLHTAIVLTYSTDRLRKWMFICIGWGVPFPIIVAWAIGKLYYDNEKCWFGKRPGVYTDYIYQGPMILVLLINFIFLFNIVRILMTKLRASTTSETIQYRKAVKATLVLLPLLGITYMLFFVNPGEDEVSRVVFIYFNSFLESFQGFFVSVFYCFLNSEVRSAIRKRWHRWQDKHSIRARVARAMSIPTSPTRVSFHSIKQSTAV
Nature of the assay: CRF1R agonist activation (EC50 / Emax), called comparative CRF binding. The assay is classed as cell-based. Conditions: for EC50: read-out: CRF1R EC50; for Emax: read-out: CRF1R Emax. In a few lines:
(§1)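 Cells expressing human CRF1R or CRF2R are exposed to peptide or vehicle control, and receptor activation is read as cAMP induction, measured in cell lysates or via a CRE-linked reporter gene.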

In the next assay the target is T2, CRF2R (Homo sapiens, UniProt Q13324).
T2 sequence (Q13324 1-411): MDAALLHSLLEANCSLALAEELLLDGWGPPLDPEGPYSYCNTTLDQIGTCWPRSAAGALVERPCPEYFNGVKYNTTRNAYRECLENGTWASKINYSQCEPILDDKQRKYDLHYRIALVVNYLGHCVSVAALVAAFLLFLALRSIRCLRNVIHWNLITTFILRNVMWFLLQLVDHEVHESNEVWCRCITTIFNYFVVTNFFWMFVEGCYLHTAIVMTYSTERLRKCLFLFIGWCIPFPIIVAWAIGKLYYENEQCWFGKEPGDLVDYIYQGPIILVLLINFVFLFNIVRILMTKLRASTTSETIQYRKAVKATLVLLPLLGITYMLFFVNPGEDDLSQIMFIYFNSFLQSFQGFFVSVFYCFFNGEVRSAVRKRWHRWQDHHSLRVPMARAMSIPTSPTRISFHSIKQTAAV
Nature of the assay: CRF2R agonist activation (EC50 / Emax), called comparative CRF binding. The conditions noted are these: for EC50: read-out: CRF2R EC50; for Emax: read-out: CRF2R Emax. The assay is classed as cell-based. In a few lines: as §1

Regarding `CC[C@H](C)[C@H](NC(=O)[C@H](C)NC(=O)[C@H](CC(N)=O)NC(=O)[C@H](CCC(N)=O)NC(=O)[C@H](CCC(=O)O)NC(=O)[C@H](C)NC(=O)[C@H](CCCNC(=N)N)NC(=O)[C@H](CCC(=O)O)NC(=O)[C@H](CCCNC(=N)N)NC(=O)[C@H](CCC(N)=O)NC(=O)[C@H](CO)NC(=O)[C@H](CCC(N)=O)NC(=O)[C@@H](NC(=O)[C@H](CCCNC(=N)N)NC(=O)[C@H](C)NC(=O)[C@H](CC(C)C)NC(=O)[C@H](CCC(=O)O)NC(=O)[C@H](CC(C)C)NC(=O)[C@H](CC(C)C)NC(=O)[C@@H](NC(=O)[C@H](CCCNC(=N)N)NC(=O)[C@H](CC(C)C)NC(=O)[C@H](CC(C)C)NC(=O)[C@H](CC(C)C)NC(=O)[C@H](Cc1ccccc1)NC(=O)[C@@H]1CCCN1C(=O)[C@H](CC(C)C)NC(=O)[C@H](CC(=O)O)NC(=O)[C@@H](NC(=O)[C@H](CO)NC(=O)[C@H](CC(C)C)NC(=O)[C@H](CO)NC(=O)[C@@H]1CCCN1C(=O)[C@H](CC(N)=O)NC(=O)[C@@H](N)CC(=O)O)[C@@H](C)CC)[C@@H](C)O)[C@@H](C)O)C(=O)N[C@H](C(=O)N[C@@H](Cc1ccccc1)C(=O)N[C@@H](C)C(=O)N[C@@H](CO)C(=O)N[C@H](C(N)=O)C(C)C)[C@@H](C)CC` [compound 180] (H-DNPSLSIDLPFLLLRTLLELARTQSQRERAEQNAIIFASV-NH2; N-terminus assumed), on CRF1R, the EC50 (as a rule, the concentration that produces a half-maximal response) stood at 125 nM and the maximal effect (Emax) (as a rule, the size of the effect at its maximum, as opposed to the concentration needed) was 99.3%. On CRF2R, the EC50 was found to be 3.14 nM and the maximal response (Emax) is 95.7%.
For the compound `CC[C@H](C)[C@H](NC(=O)[C@H](C)NC(=O)[C@H](CC(N)=O)NC(=O)[C@H](CCC(N)=O)NC(=O)[C@H](CCC(=O)O)NC(=O)[C@H](C)NC(=O)[C@H](CCCNC(=N)N)NC(=O)[C@H](CCC(=O)O)NC(=O)[C@H](CCCNC(=N)N)NC(=O)[C@H](CCC(N)=O)NC(=O)[C@H](CO)NC(=O)[C@H](CCC(N)=O)NC(=O)[C@@H](NC(=O)[C@H](CCCNC(=N)N)NC(=O)[C@H](C)NC(=O)[C@H](CC(C)C)NC(=O)[C@H](CCC(=O)O)NC(=O)[C@H](CC(C)C)NC(=O)[C@H](CC(C)C)NC(=O)[C@@H](NC(=O)[C@H](CCCNC(=N)N)NC(=O)[C@H](CC(C)C)NC(=O)[C@H](CC(C)C)NC(=O)[C@@H](NC(=O)[C@H](Cc1ccccc1)NC(=O)[C@@H]1CCCN1C(=O)[C@H](CC(C)C)NC(=O)[C@H](CC(=O)O)NC(=O)[C@@H](NC(=O)[C@H](CO)NC(=O)[C@H](CC(C)C)NC(=O)[C@H](CO)NC(=O)[C@@H]1CCCN1C(=O)[C@H](CC(N)=O)NC(=O)[C@@H](N)CC(=O)O)[C@@H](C)CC)[C@@H](C)CC)[C@@H](C)O)[C@@H](C)O)C(=O)N[C@H](C(=O)N[C@@H](Cc1ccccc1)C(=O)N[C@@H](C)C(=O)N[C@@H](CO)C(=O)N[C@H](C(N)=O)C(C)C)[C@@H](C)CC` [compound 181] (H-DNPSLSIDLPFILLRTLLELARTQSQRERAEQNAIIFASV-NH2; N-terminus assumed), the Emax at CRF1R was found to be 100%; on CRF2R, 97.8%.
With `CC[C@H](C)[C@H](NC(=O)[C@H](C)NC(=O)[C@H](CC(N)=O)NC(=O)[C@H](CCC(N)=O)NC(=O)[C@H](CCC(=O)O)NC(=O)[C@H](C)NC(=O)[C@H](CCCNC(=N)N)NC(=O)[C@H](CCC(=O)O)NC(=O)[C@H](CCCNC(=N)N)NC(=O)[C@H](CCC(N)=O)NC(=O)[C@H](CO)NC(=O)[C@H](CCC(N)=O)NC(=O)[C@@H](NC(=O)[C@H](CCCNC(=N)N)NC(=O)[C@H](C)NC(=O)[C@H](CC(C)C)NC(=O)[C@H](CCC(=O)O)NC(=O)[C@H](CC(C)C)NC(=O)[C@H](CC(C)C)NC(=O)[C@@H](NC(=O)[C@H](CCCNC(=N)N)NC(=O)[C@H](CC(C)C)NC(=O)[C@H](CC(C)C)NC(=O)[C@H](CCC(N)=O)NC(=O)[C@H](Cc1ccccc1)NC(=O)[C@@H]1CCCN1C(=O)[C@H](CC(C)C)NC(=O)[C@H](CC(=O)O)NC(=O)[C@@H](NC(=O)[C@H](CO)NC(=O)[C@H](CC(C)C)NC(=O)[C@H](CO)NC(=O)[C@@H]1CCCN1C(=O)[C@H](CC(N)=O)NC(=O)[C@@H](N)CC(=O)O)[C@@H](C)CC)[C@@H](C)O)[C@@H](C)O)C(=O)N[C@H](C(=O)N[C@@H](Cc1ccccc1)C(=O)N[C@@H](C)C(=O)N[C@@H](CO)C(=O)N[C@H](C(N)=O)C(C)C)[C@@H](C)CC` [compound 182] (H-DNPSLSIDLPFQLLRTLLELARTQSQRERAEQNAIIFASV-NH2; N-terminus assumed), the EC50 on CRF1R was 409 nM; at CRF2R it was 7.21 nM. In addition, the Emax on CRF1R was determined as 89.7%; on CRF2R it was 91.4%.
As for `CC[C@H](C)[C@H](NC(=O)[C@H](C)NC(=O)[C@H](CC(N)=O)NC(=O)[C@H](CCC(N)=O)NC(=O)[C@H](CCC(=O)O)NC(=O)[C@H](C)NC(=O)[C@H](CCCNC(=N)N)NC(=O)[C@H](CCC(=O)O)NC(=O)[C@H](CCCNC(=N)N)NC(=O)[C@H](CCC(N)=O)NC(=O)[C@H](CO)NC(=O)[C@H](CCC(N)=O)NC(=O)[C@@H](NC(=O)[C@H](CCCNC(=N)N)NC(=O)[C@H](C)NC(=O)[C@H](CC(C)C)NC(=O)[C@H](CCC(=O)O)NC(=O)[C@H](CC(C)C)NC(=O)[C@H](CC(C)C)NC(=O)[C@@H](NC(=O)[C@H](CCCNC(=N)N)NC(=O)[C@H](CC(C)C)NC(=O)[C@H](CC(C)C)NC(=O)[C@H](Cc1ccc(O)cc1)NC(=O)[C@H](Cc1ccccc1)NC(=O)[C@@H]1CCCN1C(=O)[C@H](CC(C)C)NC(=O)[C@H](CC(=O)O)NC(=O)[C@@H](NC(=O)[C@H](CO)NC(=O)[C@H](CC(C)C)NC(=O)[C@H](CO)NC(=O)[C@@H]1CCCN1C(=O)[C@H](CC(N)=O)NC(=O)[C@@H](N)CC(=O)O)[C@@H](C)CC)[C@@H](C)O)[C@@H](C)O)C(=O)N[C@H](C(=O)N[C@@H](Cc1ccccc1)C(=O)N[C@@H](C)C(=O)N[C@@H](CO)C(=O)N[C@H](C(N)=O)C(C)C)[C@@H](C)CC` [compound 183] (H-DNPSLSIDLPFYLLRTLLELARTQSQRERAEQNAIIFASV-NH2; N-terminus assumed), the maximal effect (Emax) came to 57.5% on CRF1R and 100% at CRF2R.
For the compound `CC[C@H](C)[C@H](NC(=O)[C@H](C)NC(=O)[C@H](CC(N)=O)NC(=O)[C@H](CCC(N)=O)NC(=O)[C@H](CCC(=O)O)NC(=O)[C@H](C)NC(=O)[C@H](CCCNC(=N)N)NC(=O)[C@H](CCC(=O)O)NC(=O)[C@H](CCCNC(=N)N)NC(=O)[C@H](CCC(N)=O)NC(=O)[C@H](CO)NC(=O)[C@H](CCC(N)=O)NC(=O)[C@@H](NC(=O)[C@H](CCCNC(=N)N)NC(=O)[C@H](C)NC(=O)[C@H](CC(C)C)NC(=O)[C@H](CCC(=O)O)NC(=O)[C@H](CC(C)C)NC(=O)[C@H](CC(C)C)NC(=O)[C@@H](NC(=O)[C@H](CCCNC(=N)N)NC(=O)[C@H](CC(C)C)NC(=O)[C@H](CC(C)C)NC(=O)[C@H](Cc1ccccc1)NC(=O)[C@H](Cc1ccccc1)NC(=O)[C@@H]1CCCN1C(=O)[C@H](CC(C)C)NC(=O)[C@H](CC(=O)O)NC(=O)[C@@H](NC(=O)[C@H](CO)NC(=O)[C@H](CC(C)C)NC(=O)[C@H](CO)NC(=O)[C@@H]1CCCN1C(=O)[C@H](CC(N)=O)NC(=O)[C@@H](N)CC(=O)O)[C@@H](C)CC)[C@@H](C)O)[C@@H](C)O)C(=O)N[C@H](C(=O)N[C@@H](Cc1ccccc1)C(=O)N[C@@H](C)C(=O)N[C@@H](CO)C(=O)N[C@H](C(N)=O)C(C)C)[C@@H](C)CC` [compound 184] (H-DNPSLSIDLPFFLLRTLLELARTQSQRERAEQNAIIFASV-NH2; N-terminus assumed), the Emax at CRF1R worked out at 77.3%; at CRF2R it was 96.5%.
